Experimental data taken from patent US20220370396A1, “METHODS FOR MODULATING CONDITIONS OF THE EYE USING NOVEL LATANOPROST COMPOUND OPHTHALMIC COMPOSITIONS” (Somerset Therapeutics LLC, priority 2021, published 2022).

Assay: Comparative stability testing of latanoprost formulations under refrigerated, room temperature and accelerated conditions
Type: physicochemical
Protocol: Formulations prepared according to the invention as described in Example 1 were tested for stability under refrigerated conditions ((2-8° C.), […] (25° C./60% relative humidity) and accelerated conditions (40° C./75% relative humidity) to determine stability of such formulations. The stability data of the composition provided in Table 1 of Example 1 was also compared with Reference Product (XALATAN®). Stability results are provided in Table 3.
The stability data for the composition of Table 1, Example 1 (comprising the PCCC polyoxyl 40 hydrogenated castor oil), was compared to the composition of Table 2, Example 2, comprising the polysorbate-80.

Q: With polysorbate-80 as the substance, how does the “Effect of surfactant on stabilization of latanoprost formulations” value read?
A: Its value is “marginal effect on stabilization”.
